For data set [1], the system named is Blood. Briefly: Induction of MX1 secretion in human whole blood. It counts as functional, tissue-based.
In data set [2] the test system is Blood. Briefly: Induction of IFIT1 secretion in mouse whole blood. In kind it is functional, tissue-based.
Data set [3] in a line: AUClast in Balb/c mouse at […], iv measured after 2 hrs by LC-MS analysis. It counts as ADME, organism-based. Further details: time 2 hrs, dose 0.15 mg/kg, route iv. As to conditions: in vivo.
Data set [4] addresses T1, Toll-like receptor 9 (Homo sapiens) (UniProt Q9NR96).
T1 sequence (whole entry): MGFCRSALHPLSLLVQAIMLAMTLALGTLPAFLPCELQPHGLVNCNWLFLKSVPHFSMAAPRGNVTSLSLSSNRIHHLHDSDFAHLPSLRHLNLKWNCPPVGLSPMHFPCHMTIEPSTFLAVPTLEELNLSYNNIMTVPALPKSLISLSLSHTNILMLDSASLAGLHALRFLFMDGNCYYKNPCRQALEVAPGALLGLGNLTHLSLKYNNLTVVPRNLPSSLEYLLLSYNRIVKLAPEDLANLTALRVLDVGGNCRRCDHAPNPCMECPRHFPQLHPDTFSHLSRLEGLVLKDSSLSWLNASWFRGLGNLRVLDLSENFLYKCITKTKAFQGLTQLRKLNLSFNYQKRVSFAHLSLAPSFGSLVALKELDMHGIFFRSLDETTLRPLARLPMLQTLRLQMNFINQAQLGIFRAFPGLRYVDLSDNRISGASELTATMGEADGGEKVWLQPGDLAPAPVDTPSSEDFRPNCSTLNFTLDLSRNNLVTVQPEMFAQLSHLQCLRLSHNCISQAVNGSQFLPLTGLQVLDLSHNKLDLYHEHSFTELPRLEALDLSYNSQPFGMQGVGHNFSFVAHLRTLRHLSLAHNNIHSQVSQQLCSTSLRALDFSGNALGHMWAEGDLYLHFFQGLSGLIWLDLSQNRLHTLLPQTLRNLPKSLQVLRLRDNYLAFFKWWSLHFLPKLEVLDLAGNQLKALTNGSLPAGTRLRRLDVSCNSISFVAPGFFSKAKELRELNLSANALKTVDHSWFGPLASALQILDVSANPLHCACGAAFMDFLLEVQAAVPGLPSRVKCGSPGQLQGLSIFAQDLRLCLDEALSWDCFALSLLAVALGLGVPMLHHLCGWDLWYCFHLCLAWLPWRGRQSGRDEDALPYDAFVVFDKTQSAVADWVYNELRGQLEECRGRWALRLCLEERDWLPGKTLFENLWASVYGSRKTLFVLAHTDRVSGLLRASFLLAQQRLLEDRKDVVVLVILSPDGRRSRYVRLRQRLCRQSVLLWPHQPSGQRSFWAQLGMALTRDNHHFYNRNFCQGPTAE
Briefly: Agonist activity at human TLR9.

The target of data set [5] is Toll-like receptor 4 (Homo sapiens) (UniProt O00206). Briefly: Agonist activity at human TLR4.
Sequence of Toll-like receptor 4 (Homo sapiens) (O00206 whole entry): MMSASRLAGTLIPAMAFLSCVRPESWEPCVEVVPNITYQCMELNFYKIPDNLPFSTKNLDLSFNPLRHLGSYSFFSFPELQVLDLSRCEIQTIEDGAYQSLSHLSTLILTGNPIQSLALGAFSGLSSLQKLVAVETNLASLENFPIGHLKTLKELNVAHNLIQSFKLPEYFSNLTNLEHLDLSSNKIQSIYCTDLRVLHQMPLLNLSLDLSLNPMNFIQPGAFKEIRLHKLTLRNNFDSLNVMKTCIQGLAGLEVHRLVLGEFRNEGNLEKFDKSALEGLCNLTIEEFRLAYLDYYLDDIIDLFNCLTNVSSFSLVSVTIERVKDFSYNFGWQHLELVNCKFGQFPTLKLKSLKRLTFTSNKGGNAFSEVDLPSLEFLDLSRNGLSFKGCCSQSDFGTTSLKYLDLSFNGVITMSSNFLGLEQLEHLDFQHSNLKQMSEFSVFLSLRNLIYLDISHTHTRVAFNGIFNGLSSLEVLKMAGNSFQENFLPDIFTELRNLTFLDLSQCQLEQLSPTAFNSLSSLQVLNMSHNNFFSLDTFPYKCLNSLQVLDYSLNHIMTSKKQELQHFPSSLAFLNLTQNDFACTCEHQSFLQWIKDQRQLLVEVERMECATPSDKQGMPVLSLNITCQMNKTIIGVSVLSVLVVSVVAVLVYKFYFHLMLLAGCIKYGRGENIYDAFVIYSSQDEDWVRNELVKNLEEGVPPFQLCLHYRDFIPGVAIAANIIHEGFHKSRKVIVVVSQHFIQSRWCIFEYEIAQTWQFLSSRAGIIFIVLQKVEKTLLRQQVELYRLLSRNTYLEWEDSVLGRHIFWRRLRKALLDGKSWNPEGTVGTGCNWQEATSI
Data set [6] concerns Blood. In words: Induction of IP-10 secretion in human whole blood. In kind it is functional, tissue-based.
A short description of data set [7]: Metabolic stability in mouse liver microsomes assessed as half-life. It counts as ADME, Microsome.
Data set [8] in a line: AUClast in Balb/c mouse at 0.5 mg/kg, iv measured after 2 hrs by LC-MS analysis. It counts as ADME, organism-based. Particulars: in vivo. Details: dose 0.5 mg/kg, time 2 hrs, route iv.
Data set [9] in a line: Metabolic stability in cynomolgus monkey liver microsomes assessed as half-life. It counts as ADME, Macaca fascicularis, Microsome. (Microsomes from liver hold many membrane-bound enzymes, among them those of drug oxidation.)
In data set [10] the target is Voltage-gated inwardly rectifying potassium channel KCNH2 (Homo sapiens, UniProt Q12809). In words: Inhibition of hERG by patch clamp assay. In kind it is toxicity. In general terms: The hERG channel carries a current that helps repolarise heart muscle cells.
Sequence of Voltage-gated inwardly rectifying potassium channel KCNH2 (Q12809 whole entry): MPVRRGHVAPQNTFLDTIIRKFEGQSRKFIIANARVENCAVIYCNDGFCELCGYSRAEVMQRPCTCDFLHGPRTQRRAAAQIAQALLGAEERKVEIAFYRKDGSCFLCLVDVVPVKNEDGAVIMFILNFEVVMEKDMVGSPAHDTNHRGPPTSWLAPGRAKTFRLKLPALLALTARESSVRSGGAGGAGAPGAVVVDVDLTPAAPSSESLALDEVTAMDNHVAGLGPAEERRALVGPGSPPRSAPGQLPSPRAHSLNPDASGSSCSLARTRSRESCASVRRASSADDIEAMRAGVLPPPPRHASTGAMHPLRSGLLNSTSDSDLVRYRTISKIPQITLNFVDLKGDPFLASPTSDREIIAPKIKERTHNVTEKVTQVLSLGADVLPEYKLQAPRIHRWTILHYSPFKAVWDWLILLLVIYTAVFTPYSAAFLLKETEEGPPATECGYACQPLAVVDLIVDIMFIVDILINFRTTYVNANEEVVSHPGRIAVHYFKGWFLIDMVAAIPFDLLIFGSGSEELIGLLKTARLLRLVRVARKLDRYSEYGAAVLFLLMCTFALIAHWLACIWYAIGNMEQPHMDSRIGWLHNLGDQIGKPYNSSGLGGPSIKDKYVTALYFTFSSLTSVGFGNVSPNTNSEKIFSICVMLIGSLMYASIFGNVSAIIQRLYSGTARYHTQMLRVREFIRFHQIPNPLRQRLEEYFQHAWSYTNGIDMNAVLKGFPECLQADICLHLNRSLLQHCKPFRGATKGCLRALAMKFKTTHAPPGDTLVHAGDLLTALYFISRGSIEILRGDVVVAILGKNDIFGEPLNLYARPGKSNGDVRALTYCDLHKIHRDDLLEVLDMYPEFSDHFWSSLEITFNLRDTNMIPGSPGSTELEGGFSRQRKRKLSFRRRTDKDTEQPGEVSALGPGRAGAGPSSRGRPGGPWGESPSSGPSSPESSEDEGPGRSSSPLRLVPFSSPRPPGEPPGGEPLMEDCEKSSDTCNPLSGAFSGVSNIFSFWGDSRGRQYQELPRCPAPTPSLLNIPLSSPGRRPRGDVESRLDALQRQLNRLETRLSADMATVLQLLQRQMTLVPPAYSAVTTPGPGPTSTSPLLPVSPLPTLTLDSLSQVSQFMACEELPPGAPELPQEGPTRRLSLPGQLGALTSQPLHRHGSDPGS
Data set [11] can be described thus: Permeability of compound across apical to basolateral side in human Caco-2 cells. It counts as ADME, cell-based. As to conditions: read-out: permeability. A general note: Caco-2 monolayers are a common model of the intestinal barrier.

Data on 1 compound can be found in ChEMBL document CHEMBL5357068, “Discovery of Novel TLR7 Agonists as Systemic Agent for Combination With aPD1 for Use in Immuno-oncology” (ACS Med Chem Lett, 2024).

A value given as a limit tells only on which side of the number the result lay.

The term EC50 denotes the concentration at which the effect is half-maximal. Broadly, the AUC(0-t) is the area under the concentration-time curve up to a stated or last time point. What is called half-life is the time in which the quantity being followed falls by half. One may read the IC50 as the concentration at which inhibition is half-maximal.

Turning to `CCC[C@@H](CCO)Nc1nc(N)nc2cnn(Cc3ccc(CNC4CCOCC4)cc3OC)c12`, the EC50 with Blood [1] worked out at 0.09 nM; in the data set with Blood [2], 0.19 nM; with Blood [6], 0.13 nM. Also, the AUC(0-t) at 2 h in data set [3] was 0.075 µM·h; in data set [8], 0.183 µM·h. Besides, the EC in [4] and in data set [5] was above 5 µM each time. The values for the half-life in data set [7] and in data set [9] were 85 min and 16 min, respectively. Besides, the IC50 in [10] was at least 45000 nM. The Papp A→B in [11] is 1.4 ×10⁻⁶ cm/s.
